Assay results published in PubChem BioAssay (NCI).
Several values for one entry are separate records, joined by “and”; a condition that tells them apart may be missing. Equal values may be shown once.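 Exposure lasted 48 hours, with cells grown in 96-well plates and compounds tested at five concentrations. The concentration for 50% growth inhibition is given as GI50. TGI denotes the concentration required for complete inhibition of growth.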

Columns and labels:
Assay in all cases: NCI anticancer screen, dose series, 48 h
[1] = system: NCI-H226 lung
[2] = system: M14 melanoma
[3] = system: OVCAR-8 ovarian
[4] = system: NCI-H460 lung
[5] = system: OVCAR-4 ovarian
[6] = system: IGROV1 ovarian
[7] = system: K-562 leukemia
[8] = system: CCRF-CEM leukemia
[9] = system: EKVX NSCLC
[10] = system: HOP-62 NSCLC

Molecule `O=C(O)C(Cc1cccs1)C(=O)O` has a TGI [1] of over 100 µM, a TGI [2] of over 100 µM and a TGI [3] of over 100 µM. The TGI [4] was over 100 µM, the TGI [5] was over 100 µM and the TGI [6] was over 100 µM. It also gave a TGI [7] of over 100 µM, a TGI [8] of over 100 µM and a TGI [9] of over 100 µM. It also gave a TGI [10] of over 100 µM.
`CN(C)Cc1cc(C(=O)O)cc(CN(C)C)c1O` was tested, and the TGI [1] was over 100 µM, the TGI [2] was over 100 µM and the TGI [3] was over 100 µM. It also gave a TGI [4] of over 100 µM, a TGI [5] of over 100 µM and a TGI [6] of over 100 µM. It also gave a TGI [7] of over 100 µM, a TGI [8] of over 100 µM and a TGI [9] of over 100 µM. The TGI [10] was over 100 µM.
`CC(NCCS(=O)(=O)O)C(=O)O` (stereo not drawn) was tested, and the TGI [1] was over 100 µM, the TGI [3] was over 100 µM and the TGI [4] was over 100 µM. The TGI [5] was over 100 µM, the TGI [6] was over 100 µM and the TGI [7] was over 100 µM. The TGI [8] was over 100 µM, the TGI [9] was over 100 µM and the TGI [10] was over 100 µM.
`COc1ccc(-c2cn3ccnc3c(-c3ccc4ncn(C5CCCCC5)c4c3)n2)cc1` showed a GI50 [1] of 2.97 µM, a TGI [1] of over 100 µM and a GI50 [2] of 0.612 µM. For the same molecule, the TGI [2] was over 100 µM, the GI50 [3] was 3.16 µM and the TGI [3] was over 100 µM. The GI50 [4] was 0.622 µM, the TGI [4] was over 100 µM and the GI50 [6] was 0.921 µM. For the same molecule, the TGI [6] was over 100 µM, the GI50 [7] was 0.422 µM and the TGI [7] was over 100 µM. For the same molecule, the GI50 [8] was 1.64 µM, the TGI [8] was over 100 µM and the GI50 [9] was 3.04 µM. For the same molecule, the TGI [9] was over 100 µM.
Molecule `CCCCCCCCCC[C@@H](O)[C@@H]1CC[C@@H]([C@@H]2CC[C@@H]([C@@H](O)CCCCCCCCCCC(O)CC3=CC(C)OC3=O)O2)O1` (stereo partly drawn) has a TGI [1] of 6.84 µM, a TGI [2] of over 10 µM and a TGI [3] of over 10 µM. For the same molecule, the TGI [4] was over 10 µM, the TGI [5] was over 10 µM and the TGI [6] was over 10 µM. It also gave a TGI [7] of over 10 µM, a TGI [8] of over 10 µM and a TGI [9] of over 10 µM. For the same molecule, the TGI [10] was over 10 µM.
With `Cc1c2cc[n+](C)cc2c(C)c2c1[nH]c1ccccc12` the TGI [1] was 1.7 µM and 1.61 µM, the TGI [2] was over 100 µM and the TGI [3] was 27.4 µM and 18.1 µM. For the same molecule, the TGI [4] was 12.3 µM and 11.8 µM, the TGI [5] was 15 µM and 10.9 µM and the TGI [6] was 78.1 µM and 75.3 µM. The TGI [7] was 43.1 µM and 40.2 µM, the TGI [8] was 41.9 µM and 35.3 µM and the TGI [9] was 11.1 µM and 14 µM. The TGI [10] was 2.64 µM and 2.76 µM.
Work on `C=C[C@H]1CN2CC[C@H]1C[C@@H]2[C@@H](O)c1ccnc2ccccc12` yielded a TGI [1] of over 100 µM, a TGI [2] of over 100 µM and a TGI [3] of over 100 µM. For the same molecule, the TGI [4] was over 100 µM, the TGI [5] was over 100 µM and the TGI [6] was 75.9 µM. It also gave a TGI [7] of over 100 µM, a TGI [9] of over 100 µM and a TGI [10] of over 100 µM.
With `NCCCCCCNc1cc(-c2cccc(OC(F)(F)F)c2)nc2ccc(N3CCCC3)cc12` the GI50 [5] was 1.59 µM, the TGI [5] was 3.17 µM and the GI50 [9] was 1.64 µM. The TGI [9] was 3.01 µM.
